Results on seven molecules are retold here after patent US11261175B2 (priority 2017, dated 2022).

Holding throughout (format): cell-based
The subject of assay [1] is HCV replicon S52-Feo (genotype 3a). The experiment in a line: Anti-HCV activity using HCV replicon S52-Feo (genotype 3a) in Huh 7.5.1 cells, luciferase readout. The conditions noted are these: Hepatitis C virus, 72 h; Huh 7.5.1 cells with S52-Feo replicon, 3 days, firefly luciferase; read-out: HCV wt. GT-3a. (A replicon is a self-replicating genome or part of one, used to study replication in cells.)

Assay [2] deals with HCV replicon NK5.1-Gluc (genotype 1b). Put plainly: Anti-HCV activity using HCV replicon NK5.1-Gluc (genotype 1b) in Huh 7.5.1 cells, luciferase readout. The conditions noted are these: Hepatitis C virus, 72 h; Huh 7.5.1 cells with NK5.1-Gluc replicon, 3 days, Gaussia luciferase; read-out: HCV wt. GT-1b.
The test system of assay [3] is HCV genotype 1b replicon with NS5A L31V+Y93H (double mutant). Put plainly: Transiently transfected assay of genotype 1b resistance mutant RNA L31V+Y93H (double mutant). The conditions noted are these: Hepatitis C virus, Huh-7.5.1, 72 h, read-out: HCV Mutation L31V + Y93H. Summed up: (§1)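 Huh7.5.1 cells were electroporated with in vitro-transcribed, ScaI-linearized replicon RNAs carrying the Daclatasvir-resistance substitutions, then seeded 4 h later into DMEM with serially diluted compound. After 3 days, intracellular luciferase activity was read and normalized to mock-treated cells.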

For assay [4], the system named is HCV genotype 1b replicon with NS5A Y93H mutation. Put plainly: Transiently transfected assay of genotype 1b resistance mutant RNA Y93H. As to conditions: Hepatitis C virus, Huh-7.5.1, 72 h, read-out: HCV Mutation Y93H. Summed up: as §1
Assay [5] has as its system JFH5a-Rluc-ad34 virus (HCV GT-2a). Put plainly: Anti-HCV activity using HCVcc (JFH5a-Rluc-ad34 virus) in Huh 7.5.1 cells, Renilla luciferase readout. As to conditions: Hepatitis C virus, GT2A, Huh-7.5.1, 72 h, read-out: HCV wt. GT-2a. In outline: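 Huh 7.5.1 cells were inoculated with JFH5a-Rluc-ad34, a JFH1-derived virus with adaptive E2/p7 mutations, for 4 h before serially diluted compound was added. Intracellular Renilla luciferase was read after three days and normalized to mock-treated controls.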

For assay [6], the system named is HCV genotype 1b replicon with NS5A L31V mutation. The experiment in a line: Transiently transfected assay of genotype 1b resistance mutant RNA L31V. The conditions noted are these: Hepatitis C virus, Huh-7.5.1, 72 h, read-out: HCV Mutation L31V. In outline:
as §1

Each structure is given as a SMILES string. Some results are limits rather than exact numbers.

As for `CCCC1(CCC)c2cc(NC(=O)[C@@H]3CCCN3C(=O)[C@H](NC(=O)OC)c3ccccc3)ccc2-c2ccc(NC(=O)[C@@H]3CCCN3C(=O)[C@H](NC(=O)OC)c3ccccc3)cc21` [Example 1, dimethyl ((1R,1′R)-((2S,2′S)-(((9,9-dipropyl-9H-fluorene-2,7-diyl)bis(azanediyl))bis(carbonyl))bis(pyrrolidine-2,1-diyl))bis(2-oxo-1-phenylethane-2,1-diyl))dicarbamate], the EC50 was 0.1 to 1 nM in assay [1]; 0.01 to 0.1 nM in assay [2]; > 100 nM in assay [3]; 1 to 100 nM in assay [4]; 1 to 100 nM in assay [5]; 0.1 to 1 nM in assay [6].
As for `CCCCC1(CCCC)c2cc(NC(=O)[C@@H]3C[C@@H](OC(=O)CN4CCOCC4)CN3C(=O)[C@H](NC(=O)OC)c3ccccc3)ccc2-c2ccc(NC(=O)[C@@H]3C[C@@H](OC(=O)CN4CCOCC4)CN3C(=O)[C@H](NC(=O)OC)c3ccccc3)cc21` [Example 33, (3R,3′R,5S,5S,52R)-5,5′-(9,9-dibutyl-9H-fluorene-2,7-diyl)bis(azanediyl)bis(oxomethylene)bis(1-((R)-2-(methoxycarbonylamino)-2-phenylacetyl)pyrrolidine-5,3-diyl) bis(2-morpholinoacetate)], the EC50 is 0.1 to 1 nM in assay [1]; 0.01 to 0.1 nM in assay [2]; 0.1 to 1 nM in assay [3]; 0.01 to 0.1 nM in assay [4]; 0.1 to 1 nM in assay [5]; 0.01 to 0.1 nM in assay [6].
Regarding `CCCCC1(CCCC)c2cc(NC(=O)[C@@H]3CCCN3C(=O)[C@H](NC(=O)OC)c3ccccc3)ccc2-c2ccc(-c3cnc([C@@H]4CCCN4C(=O)[C@@H](NC(=O)OC)C(C)C)[nH]3)cc21` [Example 9, methyl ((S)-1-((S)-2-(5-(9,9-dibutyl-7-((S)-1-((R)-2-((methoxycarbonyl)amino)-2-phenylacetyl)pyrrolidine-2-carboxyamido)-9H-fluorene-2-yl)-1H-imidazole-2-yl)pyrrolidine-1-yl)-3-methyl-1-oxobutane-2-yl)carbamate], the EC50 fell in the range of 0.01 to 0.1 nM in assay [1]; 0.001 to 0.01 nM in assay [2]; 0.1 to 1 nM in assay [3]; 0.01 to 0.1 nM in assay [4]; 0.01 to 0.1 nM in assay [5]; 0.01 to 0.1 nM in assay [6].
Take `CCCCC1(CCCC)c2cc(NC(=O)[C@@H]3CC4(CC4)CN3C(=O)[C@H](NC(=O)OC)c3ccccc3)ccc2-c2ccc(NC(=O)[C@@H]3C[C@H]4CCC[C@H]4N3C(=O)[C@H](NC(=O)OC)c3ccccc3)cc21` [Example 25, methyl ((R)-2-((S)-6-((9,9-dibutyl-7-((2S,3aR,6aR)-1-((R)-2-((methoxycarbonyl)amino)-2-phenylacetyl)octahydrocyclopenta[b]pyrrole-2-carboxyamido)-9H-fluorene-2-yl)carbamoyl)-5-azaspiro[2.4]heptane-5-yl)-2-oxo-1-phenylethyl)carbamate]: the EC50 in assay [1] lay within 0.01 to 0.1 nM; in assay [2], 0.001 to 0.01 nM; in assay [3], 1 to 100 nM; in assay [4] it was 1 to 100 nM; in assay [5], 1 to 100 nM; in assay [6] it was 0.001 to 0.01 nM.
On to `CCCCC1(CCCC)c2cc(NC(=O)[C@@H]3C[C@H](COC)CN3C(=O)[C@H](NC(=O)OC)c3ccccc3)ccc2-c2ccc(-c3cnc([C@@H]4C[C@H](COC)CN4C(=O)[C@@H](NC(=O)OC)C(C)C)[nH]3)cc21` [Example 40, methyl ((S)-1-((2S,4S)-2-(5-(9,9-dibutyl-7-((2S,4S)-1-((R)-2-((methoxycarbonyl)amino)-2-phenylacetyl)-4-(methoxymethyl)pyrrolidine-2-carboxyamido)-9H-fluorene-2-yl)-1H-imidazole-2-yl)-4-(methoxymethyl)pyrrolidine-1-yl)-3-methyl-1-oxobutane-2-yl)carbamate], for which the EC50 in assay [1] lay in the range of 0.1 to 1 nM; in assay [2], 0.001 to 0.01 nM; in assay [3] it was 1 to 100 nM; in assay [4] it was 0.01 to 0.1 nM; in assay [5], 0.01 to 0.1 nM; in assay [6], 0.001 to 0.01 nM.
With `CCC1(CC)c2cc(NC(=O)[C@@H]3CCCN3C(=O)[C@H](NC(=O)OC)c3ccccc3)ccc2-c2ccc(NC(=O)[C@@H]3CCCN3C(=O)[C@H](NC(=O)OC)c3ccccc3)cc21` [Example 30, dimethyl (1R,1′R)-2,2′-((2S,2′S)-2,2′-(9,9-diethyl-9H-fluorene-2,7-diyl)bis(azanediyl)bis(oxomethylene)bis(pyrrolidine-2,1-diyl))bis(2-oxo-1-phenylethane-2,1-diyl)dicarbamate], the EC50 in assay [1] was 0.1 to 1 nM; in assay [2] it was 0.01 to 0.1 nM; in assay [3], > 100 nM; in assay [4] it was 1 to 100 nM; in assay [5], 0.1 to 1 nM; in assay [6], 0.1 to 1 nM.
`CCCCC1(CCCC)c2cc(NC(=O)[C@@H]3C[C@H]4CCC[C@H]4N3C(=O)[C@H](NC(=O)OC)c3ccccc3)ccc2-c2ccc(-c3cnc([C@@H]4CCCN4C(=O)[C@@H](NC(=O)OC)C(C)C)[nH]3)cc21` [Example 28, methyl ((S)-1-((S)-2-(5-(9,9-dibutyl-7-((2S,3aR,6aR)-1-((R)-2-((methoxycarbonyl)amino)-2-phenylacetyl)octahydrocyclopenta[b]pyrrole-2-carboxyamido)-9H-fluorene-2-yl)-1H-imidazole-2-yl)pyrrolidine-1-yl)-3-methyl-1-oxobutane-2-yl)carbamate]: the EC50 in assay [1] is 0.01 to 0.1 nM; in assay [2], 0.001 to 0.01 nM; in assay [3], > 100 nM; in assay [4] it was 0.1 to 1 nM; in assay [5], 0.01 to 0.1 nM; in assay [6], 0.01 to 0.1 nM.
